Laboratory results reported in patent publication US9096548B2, “Pyrazine amide compounds” (Boehringer Ingelheim International GmbH, priority 2013, dated 2015).
pIC50: −log10 of the molar value.

Molecular target: T1, ENaC (Epithelial Sodium Channel) (Mus musculus, UniProt Q61180+Q9WU38+Q9WU39)
T1 construct: Mouse kidney M−1 cells were cultivated in DMEM; endogenous in cells; host or cells: Mouse kidney M-1 cells, cultivated with dexamethasone on transwell filters
T1 sequence (Q61180 1-699): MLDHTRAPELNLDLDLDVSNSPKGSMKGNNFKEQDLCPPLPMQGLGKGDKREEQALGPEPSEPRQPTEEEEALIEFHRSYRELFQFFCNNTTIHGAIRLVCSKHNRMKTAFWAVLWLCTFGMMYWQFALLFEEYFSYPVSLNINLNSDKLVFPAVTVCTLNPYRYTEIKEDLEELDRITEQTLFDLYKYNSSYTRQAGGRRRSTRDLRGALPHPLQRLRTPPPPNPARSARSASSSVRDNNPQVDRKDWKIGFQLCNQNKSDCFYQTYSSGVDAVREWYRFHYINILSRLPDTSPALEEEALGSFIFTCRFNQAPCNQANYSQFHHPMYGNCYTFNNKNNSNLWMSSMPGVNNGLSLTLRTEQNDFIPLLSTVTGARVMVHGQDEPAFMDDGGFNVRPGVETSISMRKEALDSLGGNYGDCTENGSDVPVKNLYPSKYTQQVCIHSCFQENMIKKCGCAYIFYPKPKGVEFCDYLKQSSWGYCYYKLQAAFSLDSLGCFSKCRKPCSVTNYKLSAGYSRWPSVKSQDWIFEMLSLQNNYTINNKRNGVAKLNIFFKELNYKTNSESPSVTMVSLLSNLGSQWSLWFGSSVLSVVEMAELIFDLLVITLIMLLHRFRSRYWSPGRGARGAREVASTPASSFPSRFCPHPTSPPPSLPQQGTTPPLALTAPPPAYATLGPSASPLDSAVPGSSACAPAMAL
T1 sequence (Q9WU38 1-638): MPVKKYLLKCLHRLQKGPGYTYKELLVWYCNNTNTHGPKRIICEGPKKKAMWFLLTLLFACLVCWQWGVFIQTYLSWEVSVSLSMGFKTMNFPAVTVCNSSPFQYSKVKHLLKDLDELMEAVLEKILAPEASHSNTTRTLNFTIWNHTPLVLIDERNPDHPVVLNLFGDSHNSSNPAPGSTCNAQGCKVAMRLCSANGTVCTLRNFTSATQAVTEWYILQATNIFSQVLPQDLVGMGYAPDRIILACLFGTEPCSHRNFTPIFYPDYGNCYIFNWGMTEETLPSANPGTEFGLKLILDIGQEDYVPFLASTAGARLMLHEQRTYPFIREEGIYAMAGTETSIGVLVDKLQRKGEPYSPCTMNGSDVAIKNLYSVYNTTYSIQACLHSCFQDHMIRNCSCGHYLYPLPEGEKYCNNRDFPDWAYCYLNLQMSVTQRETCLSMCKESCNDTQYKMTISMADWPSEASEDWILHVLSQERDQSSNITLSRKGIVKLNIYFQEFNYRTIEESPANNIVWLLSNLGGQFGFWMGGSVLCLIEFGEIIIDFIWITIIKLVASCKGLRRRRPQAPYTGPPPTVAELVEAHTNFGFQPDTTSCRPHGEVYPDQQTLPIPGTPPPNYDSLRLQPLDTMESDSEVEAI
T1 sequence (Q9WU39 1-655): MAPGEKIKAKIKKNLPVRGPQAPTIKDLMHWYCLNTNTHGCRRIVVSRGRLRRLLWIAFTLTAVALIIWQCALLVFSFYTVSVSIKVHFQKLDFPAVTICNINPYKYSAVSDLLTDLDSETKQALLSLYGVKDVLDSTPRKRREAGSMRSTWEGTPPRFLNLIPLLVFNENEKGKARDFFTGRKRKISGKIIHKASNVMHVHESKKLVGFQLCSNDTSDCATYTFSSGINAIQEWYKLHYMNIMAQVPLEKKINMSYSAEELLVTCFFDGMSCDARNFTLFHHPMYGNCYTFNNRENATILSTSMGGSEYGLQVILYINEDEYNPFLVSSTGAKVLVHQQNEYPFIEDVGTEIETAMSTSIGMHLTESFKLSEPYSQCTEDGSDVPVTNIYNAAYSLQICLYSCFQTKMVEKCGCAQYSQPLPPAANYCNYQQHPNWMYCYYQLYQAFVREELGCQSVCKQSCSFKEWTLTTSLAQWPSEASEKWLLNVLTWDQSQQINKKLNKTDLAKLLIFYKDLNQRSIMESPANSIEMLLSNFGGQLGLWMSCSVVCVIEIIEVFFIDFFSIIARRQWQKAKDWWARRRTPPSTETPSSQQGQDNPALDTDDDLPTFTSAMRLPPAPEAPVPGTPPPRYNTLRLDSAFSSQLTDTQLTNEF
Experiment: Ussing Chamber assay (short circuit current, amiloride sensitive I_SC)
Type: cell-based
Details: Ussing chamber, mouse kidney M-1 cells, short circuit current, compound added to the apical solution; read-out: IC50
Description: The IC50 values of the example compounds given above were determined in the Ussing Chamber assay.
Ussing Chamber: Mouse kidney M−1 cells were cultivated in DMEM containing 5% FCS and 5 μM dexamethasone for 10 to 12 days on polyester transwell filters. Filters were inserted into a teflon-coated well-plate which fit into the ussing chamber system. Prior to measurement the medium of M−1 cells was replaced with Caco-2 transport buffer (Invitrogen, Germany). During measurements, the Ussing chamber temperature was kept at 37° C. Short circuit currents (I_sc) were measured in the voltage-clamp mode with the software package Lab View for data acquisition and analysis. The transepithelial electrical resistance (TEER) was determined by the application of voltage steps of ±5 mV every 5 sec. Compounds were administered at a final concentration of 3 μM or at increasing concentrations (1-3-10 μM) to the apical solution. At the end of each experiment the amiloride sensitive I_SC was measured by adding 3 μM amiloride to the apical compartment. Results are expressed as inhibition in percent of the amiloride effect or as IC50.

| pIC50 | Compound |
| --- | --- |
| 7.57 | COc1cccc(CCC[N+]2(CCCc3cccc(OC)c3)CCCC(NC(=O)c3nc(Cl)c(N)nc3N)C2)c1 (centres unmarked) [Example 10.2, 3-[(3,5-Diamino-6-chloro-pyrazine-2-carbonyl)-amino]-1,1-bis-[3-(3-methoxy-phenyl)-propyl]-piperidinium chloride] |
| 7.41 | C[S+]([O-])CCNC(=O)COc1ccc(CCC[N+]2(CCCc3ccc(OCC(=O)NCC[S+](C)[O-])cc3)CCC[C@H](NC(=O)c3nc(Cl)c(N)nc3N)C2)cc1 (some centres unmarked) [Example 6.45] |
| 7.35 | Nc1nc(N)c(C(=O)N[C@H]2CCC[N+](CCCc3ccc(OCC(=O)NCCO)cc3)(CCCc3ccc(OCC(=O)NCCO)cc3)C2)nc1Cl [Example 6.38] |
| 7.06 | Nc1nc(N)c(C(=O)N[C@H]2CCC[N+](CCCc3ccc(OCC(=O)N4CCn5ccnc5C4)cc3)(CCCc3ccc(OCC(=O)N4CCn5ccnc5C4)cc3)C2)nc1Cl [Example 6.44] |
| 6.63 | CN(C)C(=O)CN(C)C(=O)COc1ccc(CCC[N+]2(CCCc3ccc(OCC(=O)N(C)CC(=O)N(C)C)cc3)CCC[C@H](NC(=O)c3nc(Cl)c(N)nc3N)C2)cc1 [Example 6.32] |
| 7.74 | Cn1cncc1CNC(=O)COc1ccc(CCC[N+]2(CCCc3ccc(OCC(=O)NCc4cncn4C)cc3)CCC[C@H](NC(=O)c3nc(Cl)c(N)nc3N)C2)cc1 [Example 6.41] |
| 7.34 | Nc1nc(N)c(C(=O)N[C@H]2CCC[N+](CCCc3ccc(OCC(=O)NC(CO)CO)cc3)(CCCc3ccc(OCC(=O)NC(CO)CO)cc3)C2)nc1Cl [Example 6.20] |
| 7.00 | COc1ccc(CCC[N+]2(CCCC3CCCCC3)CCCC(NC(=O)c3nc(Cl)c(N)nc3N)C2)cc1 (centres unmarked) [Example 3.3] |
| 7.35 | CN(C)CCNC(=O)COc1ccc(CCC[N+]2(CCCc3ccc(OCC(=O)NCCN(C)C)cc3)CCC[C@H](NC(=O)c3nc(Cl)c(N)nc3N)C2)cc1 [Example 6.14] |
| 6.29 | COc1ccc(CCC[N+](C)(CCCc2ccc(OC)cc2)CC(C)(C)NC(=O)c2nc(Cl)c(N)nc2N)cc1 [Example 2.3] |
| 7.38 | COCCN(C)C(=O)COc1ccc(CCC[N+]2(CCCc3ccc(OCC(=O)N(C)CCOC)cc3)CCC[C@H](NC(=O)c3nc(Cl)c(N)nc3N)C2)cc1 [Example 6.16] |
| 7.46 | Nc1nc(N)c(C(=O)N[C@H]2CCC[N+](CCCc3ccc(OCC(=O)NC4CCS(=O)(=O)C4)cc3)(CCCc3ccc(OCC(=O)NC4CCS(=O)(=O)C4)cc3)C2)nc1Cl (some centres unmarked) [Example 6.23] |
| 7.17 | C[N+](C)(C)CCNC(=O)COc1ccc(CCC[N+]2(CCCc3ccc(OCC(=O)NCC[N+](C)(C)C)cc3)CCCC(NC(=O)c3nc(Cl)c(N)nc3N)C2)cc1 (centres unmarked) [Example 6.6] |
| 7.08 | CN1CCC(NC(=O)COc2ccc(CCC[N+]3(CCCc4ccc(OCC(=O)NC5CCN(C)C5=O)cc4)CCC[C@H](NC(=O)c4nc(Cl)c(N)nc4N)C3)cc2)C1=O (some centres unmarked) [Example 6.46] |
| 8.30 | Nc1nc(N)c(C(=O)N[C@H]2CCC[N+](CCCc3ccc(OCC(=O)NCCc4cccnc4)cc3)(CCCc3ccc(OCC(=O)NCCc4cccnc4)cc3)C2)nc1Cl [Example 6.51] |
| 6.22 | COc1ccc(CCC[N+]2(C)CC(NC(=O)c3nc(Cl)c(N)nc3N)[C@H](c3ccc(C)cc3)C2)cc1 (some centres unmarked) [Example 3.8] |
| 6.92 | Nc1nc(N)c(C(=O)N[C@H]2CCC[N+](CCCc3ccc(OCC(=O)N(CCO)CCO)cc3)(CCCc3ccc(OCC(=O)N(CCO)CCO)cc3)C2)nc1Cl [Example 6.66] |
| 7.15 | CC(O)CN(C)C(=O)COc1ccc(CCC[N+]2(CCCc3ccc(OCC(=O)N(C)CC(C)O)cc3)CCC[C@H](NC(=O)c3nc(Cl)c(N)nc3N)C2)cc1 (some centres unmarked) [Example 6.26] |
| 7.82 | CN1CCC(NC(=O)COc2ccc(CCC[N+]3(CCCc4ccc(OCC(=O)NC5CCN(C)CC5)cc4)CCC[C@H](NC(=O)c4nc(Cl)c(N)nc4N)C3)cc2)CC1 [Example 6.13] |
| 7.96 | CN1CCOC(CNC(=O)COc2ccc(CCC[N+]3(CCCc4ccc(OCC(=O)NCC5CN(C)CCO5)cc4)CCC[C@H](NC(=O)c4nc(Cl)c(N)nc4N)C3)cc2)C1 (some centres unmarked) [Example 6.47] |
| 7.15 | COc1ccc(CCC[N@@+]2(C)CCC[C@H](NC(=O)c3nc(Cl)c(N)nc3N)C2)cc1 [Example 3.2] |
| 7.74 | N#CCNC(=O)COc1ccc(CCC[N+]2(CCCc3ccc(OCC(=O)NCC#N)cc3)CCC[C@H](NC(=O)c3nc(Cl)c(N)nc3N)C2)cc1 [Example 6.31] |
| 7.36 | COCCCN(C)C(=O)COc1ccc(CCC[N+]2(CCCc3ccc(OCC(=O)N(C)CCCOC)cc3)CCC[C@H](NC(=O)c3nc(Cl)c(N)nc3N)C2)cc1 [Example 6.34] |
| 7.62 | COC(=O)CCNC(=O)c1ccc(CCC[N+]2(CCCc3ccc(OC)cc3)CCCC(NC(=O)c3nc(Cl)c(N)nc3N)C2)cc1 (centres unmarked) [Example 5.8] |
| 7.19 | CS(=O)(=O)CCCNC(=O)COc1ccc(CCC[N+]2(CCCc3ccc(OCC(=O)NCCCS(C)(=O)=O)cc3)CCC[C@H](NC(=O)c3nc(Cl)c(N)nc3N)C2)cc1 [Example 6.43] |

Same assay, conditions: Ussing chamber, mouse kidney M-1 cells, short circuit current; unit inferred; read-out: IC50

| pIC50 | Compound |
| --- | --- |
| 7.59 | CCOc1ccc(CCC[N+]2(CCCc3ccc(OCC)cc3)CCCC(NC(=O)c3nc(Cl)c(N)nc3N)C2)cc1 (centres unmarked) [Example 9.2, 3-[(3,5-Diamino-6-chloro-pyrazine-2-carbonyl)-amino]-1,1-bis-[3-(4-ethoxy-phenyl)-propyl]-piperidinium chloride] |
| 7.02 | Nc1nc(N)c(C(=O)NC2CCC[N+](CCCc3ccc(OCCOCCOCCO)cc3)(CCCc3ccc(OCCOCCOCCO)cc3)C2)nc1Cl (centres unmarked) [Example 9, 3-[(3,5-Diamino-6-chloro-pyrazine-2-carbonyl)-amino]-1,1-bis-[3-(4-{2-[2-(2-hydroxyethoxy)-ethoxy]-ethoxy}-phenyl)-propyl]-piperidinium chloride] |
| 7.17 | Nc1nc(N)c(C(=O)N[C@H]2CCC[N+](CCCc3ccc(OCCOCCOCCOCCO)cc3)(CCCc3ccc(OCCOCCOCCOCCO)cc3)C2)nc1Cl [Example 9.4, 3-[(3,5-Diamino-6-chloro-pyrazine-2-carbonyl)-amino]-1,1-bis-{3-[4-(2-{2-[2-(2-hydroxy-ethoxy)-ethoxy]-ethoxy}-ethoxy)-phenyl]-propyl}-piperidinium chloride] |
| 7.42 | Nc1nc(N)c(C(=O)N[C@H]2CCC[N+](CCCc3ccc(OCCO)cc3)(CCCc3ccc(OCCO)cc3)C2)nc1Cl [Example 9.6, (S)-3-[(3,5-Diamino-6-chloro-pyrazine-2-carbonyl)-amino]-1,1-bis-{3-[4-(2-hydroxyethoxy)-phenyl]-propyl}-piperidinium chloride] |
